{"source": "patent US10167262B2", "about": "“Herbicidal substituted 3-arylpyrazoles” (FMC CORPORATION, priority 2014, dated 2019)", "assay_in_all_cases": "Test C pre-/postemergence greenhouse test, plant response rating 0-100", "format_in_all_cases": "in vivo", "key": {"[1]": {"test_system": "lambsquarters (Chenopodium album)", "conditions": "Postemergence; for Plant response rating, Lambsquarters: scale 0 to 100", "description": "(§1) Seeds of plant species selected from blackgrass (Alopecurus myosuroides), Italian ryegrass (Lolium multiflorum), winter wheat (Triticum aestivum), galium (catchweed bedstraw, Galium aparine), corn (Zea mays), large (Lg) crabgrass (Digitaria sanguinalis), giant foxtail (Setaria faberii), johnsongrass (Sorghum halepense), lambsquarters (Chenopodium album), morningglory (Ipomoea coccinea), yellow nutsedge (Cyperus esculentus), pigweed (Amaranthus retroflexus), ragweed (common ragweed, Ambrosia elatior), soybean (Glycine max), barnyardgrass (Echinochloa crus-galli), oilseed rape (Brassica napus), waterhemp (common waterhemp, Amaranthus rudis), and velvetleaf (Abutilon theophrasti) were planted into a blend of loam soil and sand and treated preemergence with test chemicals formulated in a non-phytotoxic solvent mixture which included a surfactant.\n(§2) At the same time, plants selected from these crop and weed species and also winter barley (Hordeum vulgare), bermudagrass (Cynodon dactylon), downy bromegrass (Bromus tectorum), canarygrass (Phalaris minor), cocklebur (common cocklebur, Xanthium strumarium), woolly cupgrass (Eriochloa villosa), deadnettle (henbit deadnettle, Lamium amplexicaule), green foxtail (Setaria viridis), goosegrass (Eleusine indica), surinam grass (Brachiaria decumbens), windgrass (Apera spica-venti), chickweed (common chickweed, Stellaria media), kochia (Kochia scoparia), and wild oat (Avena fatua), were planted in pots containing Redi-Earth® planting medium (Scotts Company, 14111 Scottslawn Road, Marysville, Ohio 43041) comprising spaghnum peat moss, vermiculite, wetting agent and starter nutrients and treated with postemergence applications of test chemicals formulated in the same manner. Plants ranged in height from 2 to 18 cm (1- to 4-leaf stage) for postemergence treatments. Treated plants and controls were maintained in a greenhouse for 13 to 15 days, after which time all species were compared to controls and visually evaluated. Plant response ratings, summarized in Table C, are based on a scale of 0 to 100 where 0 is no effect and 100 is complete control. A dash (-) response means no test result."}, "soybean (Glycine max)": {"test_system": "soybean (Glycine max)", "description": "as §1, §2"}, "[2]": {"test_system": "winter wheat (Triticum aestivum)", "description": "as §1, §2"}, "[3]": {"test_system": "ragweed (common ragweed, Ambrosia elatior)", "description": "as §1, §2"}, "[4]": {"test_system": "pigweed (Amaranthus retroflexus)", "conditions": "Postemergence; for Plant response rating, Pigweed: scale 0 to 100", "description": "as §1, §2"}, "corn (Zea mays)": {"test_system": "corn (Zea mays)", "conditions": "Postemergence; for Plant response rating, Corn: scale 0 to 100", "description": "as §1, §2"}, "[5]": {"test_system": "large (Lg) crabgrass (Digitaria sanguinalis)", "conditions": "Postemergence; for Plant response rating, Crabgrass, Large: scale 0 to 100", "description": "as §1, §2"}, "[6]": {"test_system": "yellow nutsedge (Cyperus esculentus)", "conditions": "Postemergence; for Plant response rating, Nutsedge, Yellow: scale 0 to 100", "description": "as §1, §2"}, "[7]": {"test_system": "Italian ryegrass (Lolium multiflorum)", "description": "as §1, §2"}, "[8]": {"test_system": "velvetleaf (Abutilon theophrasti)", "description": "as §1, §2"}, "[9]": {"test_system": "giant foxtail (Setaria faberii)", "conditions": "Postemergence; for Plant response rating, Foxtail, Giant: scale 0 to 100", "description": "as §1, §2"}, "[10]": {"test_system": "johnsongrass (Sorghum halepense)", "conditions": "Postemergence; for Plant response rating, Johnsongrass: scale 0 to 100", "description": "as §1, §2"}, "[11]": {"test_system": "blackgrass (Alopecurus myosuroides)", "conditions": "Postemergence; for Plant response rating, Blackgrass: scale 0 to 100", "description": "as §1, §2"}, "[12]": {"conditions": "Postemergence, 250 g ai/ha, scale 0 to 100"}, "[13]": {"conditions": "Postemergence, 500 g ai/ha, scale 0 to 100"}, "[14]": {"conditions": "Preemergence, 0 to 100 scale (0 no effect, 100 complete control), rate 500 g ai/ha per head r3, sub-head of this section not shown"}}, "data": [{"smiles": "O=C(c1ccccc1)c1cn(S(=O)(=O)C(F)(F)F)nc1-c1cc(Cl)cc(Cl)c1", "note": "[Compound 2]", "values": [{"measurement": "Plant response rating (0 to 100), Lambsquarters", "setting": "[1]; 62 g ai/ha", "value": 85}, {"measurement": "Plant response rating (0 to 100), Lambsquarters", "setting": "[1]; 125 g ai/ha", "value": 85}, {"measurement": "Plant response rating, Lambsquarters", "setting": "[1]; 250 g ai/ha", "value": 85}, {"measurement": "Plant response rating, Lambsquarters", "setting": "[1]; 500 g ai/ha", "value": 90}, {"measurement": "Plant response rating (0 to 100), Soybean", "setting": "soybean (Glycine max); Postemergence, 62 g ai/ha", "value": 0}, {"measurement": "Plant response rating (0 to 100), Soybean", "setting": "soybean (Glycine max); Postemergence, 125 g ai/ha", "value": 0}, {"measurement": "Plant response rating, Soybean", "setting": "soybean (Glycine max); [12]", "value": 0}, {"measurement": "Plant response rating, Soybean", "setting": "soybean (Glycine max); [13]", "value": 5}, {"measurement": "Plant response rating, Soybean", "setting": "soybean (Glycine max); [14]", "value": 0}, {"measurement": "Plant response rating (0 to 100), Wheat", "setting": "[2]; Postemergence, 62 g ai/ha", "value": 0}, {"measurement": "Plant response rating (0 to 100), Wheat", "setting": "[2]; Postemergence, 125 g ai/ha", "value": 0}, {"measurement": "Plant response rating, Wheat", "setting": "[2]; [12]", "value": 0}, {"measurement": "Plant response rating, Wheat", "setting": "[2]; [13]", "value": 0}, {"measurement": "Plant response rating, Wheat", "setting": "[2]; Preemergence, 0 to 100 scale (0 no effect, 100 complete control), rate 500 g ai/ha", "value": 0}, {"measurement": "Plant response rating (0 to 100), Ragweed", "setting": "[3]; Postemergence, 62 g ai/ha", "value": 40}, {"measurement": "Plant response rating (0 to 100), Ragweed", "setting": "[3]; Postemergence, 125 g ai/ha", "value": 60}, {"measurement": "Plant response rating, Ragweed", "setting": "[3]; [12]", "value": 60}, {"measurement": "Plant response rating, Ragweed", "setting": "[3]; [13]", "value": 70}, {"measurement": "Plant response rating, Ragweed", "setting": "[3]; [14]", "value": 0}, {"measurement": "Plant response rating (0 to 100), Pigweed", "setting": "[4]; 62 g ai/ha", "value": 90}, {"measurement": "Plant response rating (0 to 100), Pigweed", "setting": "[4]; 125 g ai/ha", "value": 90}, {"measurement": "Plant response rating, Pigweed", "setting": "[4]; 250 g ai/ha", "value": 98}, {"measurement": "Plant response rating, Pigweed", "setting": "[4]; 500 g ai/ha", "value": 100}, {"measurement": "Plant response rating (0 to 100), Corn", "setting": "corn (Zea mays); 62 g ai/ha", "value": 0}, {"measurement": "Plant response rating (0 to 100), Corn", "setting": "corn (Zea mays); 125 g ai/ha", "value": 0}, {"measurement": "Plant response rating, Corn", "setting": "corn (Zea mays); 250 g ai/ha", "value": 0}, {"measurement": "Plant response rating, Corn", "setting": "corn (Zea mays); 500 g ai/ha", "value": 0}, {"measurement": "Plant response rating (0 to 100), Crabgrass, Large", "setting": "[5]; 62 g ai/ha", "value": 0}, {"measurement": "Plant response rating (0 to 100), Crabgrass, Large", "setting": "[5]; 125 g ai/ha", "value": 0}, {"measurement": "Plant response rating, Crabgrass, Large", "setting": "[5]; 250 g ai/ha", "value": 0}, {"measurement": "Plant response rating, Crabgrass, Large", "setting": "[5]; 500 g ai/ha", "value": 0}, {"measurement": "Plant response rating (0 to 100), Nutsedge, Yellow", "setting": "[6]; 62 g ai/ha", "value": 0}, {"measurement": "Plant response rating (0 to 100), Nutsedge, Yellow", "setting": "[6]; 125 g ai/ha", "value": 0}, {"measurement": "Plant response rating, Nutsedge, Yellow", "setting": "[6]; 250 g ai/ha", "value": 0}, {"measurement": "Plant response rating, Nutsedge, Yellow", "setting": "[6]; 500 g ai/ha", "value": 0}, {"measurement": "Plant response rating (0 to 100), Ryegrass, Italian", "setting": "[7]; Postemergence, 62 g ai/ha", "value": 0}, {"measurement": "Plant response rating (0 to 100), Ryegrass, Italian", "setting": "[7]; Postemergence, 125 g ai/ha", "value": 0}, {"measurement": "Plant response rating, Ryegrass, Italian", "setting": "[7]; [12]", "value": 0}, {"measurement": "Plant response rating, Ryegrass, Italian", "setting": "[7]; [13]", "value": 0}, {"measurement": "Plant response rating, Ryegrass, Italian", "setting": "[7]; [14]", "value": 0}, {"measurement": "Plant response rating (0 to 100), Velvetleaf", "setting": "[8]; Postemergence, 62 g ai/ha", "value": 75}, {"measurement": "Plant response rating (0 to 100), Velvetleaf", "setting": "[8]; Postemergence, 125 g ai/ha", "value": 75}, {"measurement": "Plant response rating, Velvetleaf", "setting": "[8]; [12]", "value": 80}, {"measurement": "Plant response rating, Velvetleaf", "setting": "[8]; [13]", "value": 85}, {"measurement": "Plant response rating, Velvetleaf", "setting": "[8]; [14]", "value": 35}, {"measurement": "Plant response rating (0 to 100), Foxtail, Giant", "setting": "[9]; 62 g ai/ha", "value": 0}, {"measurement": "Plant response rating (0 to 100), Foxtail, Giant", "setting": "[9]; 125 g ai/ha", "value": 0}, {"measurement": "Plant response rating, Foxtail, Giant", "setting": "[9]; 250 g ai/ha", "value": 0}, {"measurement": "Plant response rating, Foxtail, Giant", "setting": "[9]; 500 g ai/ha", "value": 0}, {"measurement": "Plant response rating (0 to 100), Johnsongrass", "setting": "[10]; 62 g ai/ha", "value": 0}, {"measurement": "Plant response rating (0 to 100), Johnsongrass", "setting": "[10]; 125 g ai/ha", "value": 0}, {"measurement": "Plant response rating, Johnsongrass", "setting": "[10]; 250 g ai/ha", "value": 0}, {"measurement": "Plant response rating, Johnsongrass", "setting": "[10]; 500 g ai/ha", "value": 0}, {"measurement": "Plant response rating (0 to 100), Blackgrass", "setting": "[11]; 62 g ai/ha", "value": 0}, {"measurement": "Plant response rating, Blackgrass", "setting": "[11]; 125 g ai/ha", "value": 0}, {"measurement": "Plant response rating, Blackgrass", "setting": "[11]; 250 g ai/ha", "value": 0}, {"measurement": "Plant response rating, Blackgrass", "setting": "[11]; 500 g ai/ha", "value": 0}]}]}
